The values below come from US20190247361A1, “OXYTOCIN ANTAGONIST DOSING REGIMENS FOR PROMOTING EMBRYO IMPLANTATION AND PREVENTING MISCARRIAGE” (ObsEva S.A., priority 2016, published 2019).

Data set [1] is described as follows: serum compound (II) level at time of embryo transfer (Phase 2 study). The conditions noted are these: female, human, oral, about 3.5 hours after administration, mean (standard deviation). Format: in vivo. How it is done:
From one to two embryos of good quality were transferred to each subject. To reduce uterine contractions at the time of embryo transfer, soft or ultra-soft catheters were used and contact with the uterine fundus was avoided. Any difficulties that occurred during the embryo transfer procedure were recorded, including instances in which uterine sounding or cervical dilation were required, instances in which a harder catheter was required, or instances in which blood was found in any part of the catheter.

The next data set has as its system cytochrome P450. Kind of data set: microsomal stability, pooled liver microsomes, cytochrome P450 alone. Format: in vitro ADME. The conditions noted are these: 45 minute experiment. How it is done:
(§1) At five time points over the course of a 45 minute experiment, the compounds were analyzed by liquid chromatography and tandem mass spectrometry (LC-MS/MS). Intrinsic clearance values (CLint) with standard error (SE CLint) and metabolic half-life (t1/2) were calculated and are indicated in Table 9, below.

The subject of data set [2] is cytochrome P450 in combination with UGT. Kind of data set: microsomal stability, pooled liver microsomes, cytochrome P450 in combination with UGT. Format: in vitro ADME. The note with it: 45 minute experiment. The protocol:
as §1

A further data set deals with CYP3A4 (Homo sapiens, UniProt P08684). Kind of data set: metabolism by CYP3A4 isoform. Format: in vitro ADME. The note with it: for Compound Remaining (% of compound present at t = 0 min): 5 μM. How it is done: At five time points over the course of a 45 minute experiment, the compounds were analyzed by LC-MS/MS. The percentage of each compound remaining at each time point, along with the metabolic half-lives of each compound in the presence of each cytochrome P450 isoform, are indicated in Tables 10-12, below.
Chain of CYP3A4 (P08684 whole entry, canonical isoform): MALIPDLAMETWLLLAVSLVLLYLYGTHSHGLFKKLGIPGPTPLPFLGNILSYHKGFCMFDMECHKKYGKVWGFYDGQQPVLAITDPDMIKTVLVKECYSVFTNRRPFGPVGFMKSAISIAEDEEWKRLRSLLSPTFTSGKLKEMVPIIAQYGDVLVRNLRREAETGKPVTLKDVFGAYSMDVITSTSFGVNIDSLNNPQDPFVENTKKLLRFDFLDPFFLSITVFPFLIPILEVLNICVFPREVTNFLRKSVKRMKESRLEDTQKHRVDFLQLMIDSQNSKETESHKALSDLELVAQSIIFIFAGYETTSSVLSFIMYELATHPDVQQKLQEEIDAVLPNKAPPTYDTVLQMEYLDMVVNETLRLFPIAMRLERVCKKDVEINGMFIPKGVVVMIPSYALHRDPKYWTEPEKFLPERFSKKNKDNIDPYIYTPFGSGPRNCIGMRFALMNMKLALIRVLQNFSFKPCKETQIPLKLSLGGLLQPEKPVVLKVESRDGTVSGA

A further data set has as its system HEK293EBNA cells. The note with it: suppressing Ca^2+ mobilization in cultured HEK293EBNA cells; cited from earlier work.
The conditions of data set [3]: in vivo, cited from earlier work.

With `CO/N=C1/C[C@@H](CO)N(C(=O)c2ccc(-c3ccccc3C)cc2)C1` [Compound (II), (3Z,5S)-5-(hydroxymethyl)-1-[(2′-methyl-1,1′-biphenyl-4-yl)carbonyl]pyrrolidin-3-one O-methyloxime], the concentration at 3.5 h worked out at 484 ng/mL in data set [1] (100 mg dose), 1450 ng/mL in data set [1] (300 mg dose) and 4160 ng/mL in data set [1] (900 mg dose). The microsomal CLint at 3 μM in the data set on cytochrome P450 (read-out: CLint, Metabolic Stability - CYP) stood at 11.6 µL/min/mg; in data set [2] (read-out: CLint, Metabolic Stability - CYP/UGT), 9.33 µL/min/mg. The half-life at 3 μM in the data set with cytochrome P450 (read-out: t1/2, Metabolic Stability - CYP) amounted to 2 h; in data set [2] (read-out: t1/2, Metabolic Stability - CYP/UGT), 2.48 h. The “Compound Remaining (% of compound present at t = 0 min)” value is on record as 100% on CYP3A4 (0 min); 86.5% at CYP3A4 (5 min); 75.9% on CYP3A4 (15 min); 67.3% on CYP3A4 (30 min); 63.9% on CYP3A4 (45 min). Also, at CYP3A4 (human), the half-life at 5 μM was found to be 1.23 h. Further, the IC50 in the data set on HEK293EBNA cells was 81 nM. In data set [3] (po), the oral bioavailability is on record as 42-100%. For the same molecule, the serum half-life in data set [3] was 11 to 12 h. Moreover, the tmax in data set [3] was 1 to 4 h.
